Data taken from patent EP4445957A1, “ANTIBACTERIAL COVALENT PEPTIDE INHIBITORS” (priority 2023, dated 2024).
Where two headings read alike, the source gives them in different places. Square brackets hold non-standard residues; d marks the D form. Peptide text beside a SMILES is read from it. * marks the point of attachment. Cha = N[C@@H](CC1CCCCC1)C(=O)O; Crotonyl(E) = C/C=C/C(=O)*; Dap = NC[C@H](N)C(=O)O; Acryloyl = C=CC(=O)*; BrAc = O=C(CBr)*; ClAc = O=C(CCl)*; X1 = CC#CC(=O)*

Assays:
[1] = target: EcH175GSC (Escherichia coli, UniProt P0A988, H175G); experiment: Isothermal Titration Calorimetry (ITC/kinITC), H175G mutant sliding clamp; type: binding, E. coli; details: for ΔΔH (ΔH reduction): H175G SC mutant compared to EcwtSC, 25 °C; for ΔΔH (ΔH reduction) / -TΔS / ΔG / ΔH: R1 buffer; for -TΔS / ΔG / ΔH: 25 °C (298.15K)
Method: (§1) ITC experiments were performed using an iTC200 or a PEAQ-ITC instrument (Microcal Malvern Panalytical). Peptides (300 or 600 µM) were titrated at 25 °C by sequential injections (usually 2 µL each) into an SC solution (30 or 60 µM). Data were corrected for the heat of injection by subtracting the signal of the titration of peptides into protein-free buffer solution either R1 buffer ([4-(2-hydroxyethyl)piperazine-1-ethanesulfonic acid (HEPES) 10 mM pH 7.4, NaCl 0.15 M, EDTA 3 mM] or AcNH4 pH7.4, 150 mM). Each titration was performed at least twice: the exact number of the experiments performed with each peptide is indicated in Tables 1-6. Reported data are mean values (± SD) of all experiments. Analyses of the experimental data were performed, following a classical treatment with AFFINImeter software (https://www.affinimeter.com; S4S, Santiago de Compostela, Spain). In addition, kinetic information was obtained in some cases with kinITC as implemented in software AFFINImeter (D. Burnouf et al., J. Am. Chem. Soc. 2012, 134, 559-565; and P. Dumas et al., in Methods Enzymol., Elsevier, 2016, pp. 157-180).

[2] = target: EcwtSC (Escherichia coli, UniProt P0A988); experiment: Isothermal Titration Calorimetry (ITC/kinITC), wild-type sliding clamp; type: binding, E. coli
Method: as §1, with “Peptides (300 or 600 µM) were titrated at 25 °C by sequential injections (usually 2 µL each) into an SC solution (30 or 60 µM).” left out

[3] = target: T1, EcSC (Escherichia coli, UniProt P0A988); experiment: Covalent adduct formation monitored by mass spectrometry, kinetic constants kinact; type: biochemical, E. coli; details: for formation of covalent adducts: reaction monitored by mass spectrometry
T1 construct: compatible with the molecular weight of ^EcSC monomer (40.6 kDa); endogenous in cells; host or cells: E. coli whole cell lysate
Method: We consider the following two-steps reaction model to describe the binding of the peptide to SC and the covalent bond formation to the His 175 residue: • First step: the peptides bind reversibly to the SC binding site • Second: the formation of the covalent bond. [drawing 31]
Overall, no major effect of the incorporation of the warheads on the binding affinity was observed on the whole series of the TCls. […] Then, kinetic constants (kinact) of compounds 1 and 2 were determined at 22°C and 37°C (Table 7, entries 4 and 7).

[4] = buffer AcNH4 pH 7.4, 150 mM, 295.15 K (22 °C)
[5] = buffer AcNH4 pH 7.4, 150 mM, 295.15 K (22 °C), read-out: KD
[6] = buffer AcNH4 pH 7.4, 150 mM, 310.15 K (37 °C)
[7] = buffer AcNH4 pH 7.4, 150 mM, 310.15 K (37 °C), read-out: KD
[8] = buffer R1 (X 1), 295.15 K (22 °C)
[9] = buffer R1 (X 1), 310.15 K (37 °C)

EcH175GSC, sequence (P0A988 whole entry H175G): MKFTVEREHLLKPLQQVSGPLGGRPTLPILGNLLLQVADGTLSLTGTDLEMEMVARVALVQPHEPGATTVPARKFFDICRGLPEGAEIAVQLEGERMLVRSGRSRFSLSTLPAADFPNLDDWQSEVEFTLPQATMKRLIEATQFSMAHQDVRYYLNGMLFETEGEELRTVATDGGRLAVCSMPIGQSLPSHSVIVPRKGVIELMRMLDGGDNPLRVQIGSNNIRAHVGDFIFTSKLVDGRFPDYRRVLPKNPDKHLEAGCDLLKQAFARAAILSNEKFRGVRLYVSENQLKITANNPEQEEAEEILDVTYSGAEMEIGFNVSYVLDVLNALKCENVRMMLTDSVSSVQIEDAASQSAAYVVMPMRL
EcwtSC, sequence (P0A988 whole entry): as the sequence (P0A988 whole entry H175G) above, with G175H counted along it
T1 sequence (P0A988 whole entry): as the sequence (P0A988 whole entry H175G) above, with G175H counted along it

SMILES | ΔΔH (ΔH reduction) [1] [kcal/mol] | -TΔS [1] | ΔG [1] | ΔH [1] | -TΔS ([2]; R1 buffer, 25 °C (298.15K)) | ΔG ([2]; R1 buffer, 25 °C (298.15K)) | ΔH ([2]; R1 buffer, 25 °C (298.15K)) | -TΔS [2, 4] | ΔG [2, 4] | ΔH [2, 4] | Kd [2, 5] [nM] | -TΔS [2, 6] | ΔG [2, 6] | ΔH [2, 6] | -TΔS [2, 8] | ΔG [2, 8] | ΔH [2, 8] | -TΔS [2, 9] | ΔG [2, 9] | ΔH [2, 9] | also measured
C=CC(=O)NC[C@H](NC(=O)[C@H](CC1CCCCC1)NC(=O)[C@H](CCC(N)=O)NC(C)=O)C(=O)N[C@@H](CC(C)C)C(=O)N[C@@H](Cc1ccccc1)C(=O)O [Peptide 1, Ac-Gln-Cha-Dap(acrylamide)-Leu-Phe-OH] (Ac-Q[Cha][Dap](Acryloyl)LF-OH) | 2.1 | 3.3 (±0.7) kcal/mol | -8.3 (±0.1) kcal/mol | -11.6 (±0.6) kcal/mol | 3.7 (± 0.02) kcal/mol | -9.2 (± 0.07) kcal/mol | -12.8 (± 0.08) kcal/mol | 2.3 (± 0.7) kcal/mol | -9.3 (± 0.3) kcal/mol | -11.5 (± 0.5) kcal/mol | 153 | 6.9 (± 1.1) kcal/mol | -8.9 (± 0.1) kcal/mol | -15.9 (± 1.2) kcal/mol | 2.1 (± 0.2) kcal/mol | -9.4 (± 0.2) kcal/mol | -11.4 (± 0.4) kcal/mol | 4.9 (± 1.1) kcal/mol | -9.04 (± 0.26) kcal/mol | -13.9 (± 0.8) kcal/mol | Kd [2, 7]: 482 nM; formation of covalent adducts [3]: form covalent adducts
C/C=C/C(=O)NC[C@H](NC(=O)[C@H](CC1CCCCC1)NC(=O)[C@H](CCC(N)=O)NC(C)=O)C(=O)N[C@@H](CC(C)C)C(=O)N[C@@H](Cc1ccccc1)C(=O)O [Peptide 3, Ac-Gln-Cha-Dap(but-2-enamide)-Leu-Phe-OH] (Ac-Q[Cha][Dap](Crotonyl(E))LF-OH) |  |  |  |  | 1.1 (± 0.1) kcal/mol | -9.25 (± 0.01) kcal/mol | -10.4 (± 0.1) kcal/mol | 0.79 (± 0.52) kcal/mol | -9.02 (± 0.2) kcal/mol | -9.81 (± 0.4) kcal/mol | 212 | 6.31 (±0.02) kcal/mol | -8.97 (± 0.06) kcal/mol | -15.3 (± 0.1) kcal/mol | 1.8 (± 0.4) kcal/mol | -9.7 (± 0.2) kcal/mol | -11.7 (± 0.6) kcal/mol | 5.8 (± 1) kcal/mol | -9.1 (± 0.2) kcal/mol | -14.8 (± 0.8) kcal/mol | Kd ([2]; read-out: KD (nM) at 37 °C (AcONH4 buffer), Table 7, 37 °C, AcONH4 buffer): 475 ± 47 nM
CC(=O)N[C@@H](CCC(N)=O)C(=O)N[C@@H](CC1CCCCC1)C(=O)N[C@@H](CNC(=O)CBr)C(=O)N[C@@H](CC(C)C)C(=O)N[C@@H](Cc1ccccc1)C(=O)O [Peptide 4, Ac-Gln-Cha-Dap(bromoacetamide)-Leu-Phe-OH] (Ac-Q[Cha][Dap](BrAc)LF-OH) |  |  |  |  |  |  |  |  |  |  | 111 |  |  |  |  |  |  |  |  |  | Kd [1]: 730 nM; Kd ([2]; KD (nM) at 22 °C (AcONH4 buffer), Table 7, 22 °C, AcONH4 buffer): 111 ± 17 nM; Kd ([2]; KD (nM) at 25°C (Hepes buffer), Table 7, 25°C, Hepes buffer): 139 ± 54 nM; Kd ([2]; KD (nM) at 37 °C (AcONH4 buffer), Table 7, 37 °C, AcONH4 buffer): 281 ± 62 nM; Kd ([2]; R1 buffer, 25 °C (298.15K), read-out: KD): 141 nM; Kd [2, 7]: 281 nM; Kd ([2]; buffer R1 (X 1), 295.15 K (22 °C), read-out: KD): 96.4 nM; Kd ([2]; buffer R1 (X 1), 310.15 K (37 °C), read-out: KD): 273 nM
CC#CC(=O)NC[C@H](NC(=O)[C@H](CC1CCCCC1)NC(=O)[C@H](CCC(N)=O)NC(C)=O)C(=O)N[C@@H](CC(C)C)C(=O)N[C@@H](Cc1ccccc1)C(=O)O [Peptide 5, Ac-Gln-Cha-Dap(but-2-ynamide)-Leu-Phe-OH] (Ac-Q[Cha][Dap](X1)LF-OH) | 2.0 | 0.04 (±0.3) kcal/mol | -9.7 (±0.1) kcal/mol | -9.7 (±0.2) kcal/mol | 2.1 (± 0.1) kcal/mol | -9.8 (± 0.1) kcal/mol | -11.8 (± 0.06) kcal/mol |  |  |  |  |  |  |  | 2.7 (± 1.2) kcal/mol | -10.5 (± 0.2) kcal/mol | -13.1 (± 1.2) kcal/mol | 6.9 (± 0.4) kcal/mol | -10.12 (± 0.03) kcal/mol | -17.0 (± 0.4) kcal/mol | 
CC(=O)N[C@@H](CCC(N)=O)C(=O)N[C@@H](CC1CCCCC1)C(=O)N[C@@H](CNC(=O)CCl)C(=O)N[C@@H](CC(C)C)C(=O)N[C@@H](Cc1ccccc1)C(=O)O [Peptide 2, Ac-Gln-Cha-Dap(chloroacetamide)-Leu-Phe-OH] (Ac-Q[Cha][Dap](ClAc)LF-OH) | 3.2 | 1.2 (±0.1) kcal/mol | -8.3 (±0.08) kcal/mol | -9.6 (±0.1) kcal/mol | 2.5 (± 0.4) kcal/mol | -9.2 (± 0.1) kcal/mol | -11.7 (± 0.4) kcal/mol | 1.7 (± 1.5) kcal/mol | -9.2 (± 0.1) kcal/mol | -10.9 (± 1.5) kcal/mol |  | 8.1 (± 3.0) kcal/mol | -8.9 (± 0.4) kcal/mol | -16.9 (± 2.7) kcal/mol | -0.3 (± 0.1) kcal/mol | -9.31 (± 0.03) kcal/mol | -8.9 (± 0.1) kcal/mol | 2.3 (± 0.9) kcal/mol | -9.03 (± 0.23) kcal/mol | -11.3 (± 0.8) kcal/mol | Kd [2, 7]: 580 nM; Kd ([2]; read-out: KD (nM) at 22 °C (AcONH4 buffer), Table 7, 22 °C, AcONH4 buffer): 146 ± 20 nM; kinact (M^-1. s^-1) at 37 °C (AcONH4 buffer) ([3]; 37 °C, AcONH4 buffer, second-order rate constant): 1.04 ± 0.01 M⁻¹ s⁻¹; formation of covalent adducts [3]: form covalent adducts
